The record followed here is ChEMBL document CHEMBL4251595, “Green approach for the synthesis of thiophenyl pyrazoles and isoxazoles by adopting 1,3-dipolar cycloaddition methodology and their antimicrobial activity” (2018).

Active and inactive are the calls of the source. No cut-off for these calls is given here.

Format in all cases: functional
The subject of assay [1] is Aspergillus niger. Put plainly: Antifungal activity against Aspergillus niger assessed as zone of inhibition at 50 ug/well after 48 hrs by agar well diffusion method. The conditions noted are these: for zone of inhibition at 50 µg/disc: read-out: DIZ. A general note: In agar diffusion tests the substance spreads into inoculated agar from a disc or well.
Assay [2] relates to Klebsiella pneumoniae. Put plainly: Antimicrobial activity against Klebsiella pneumoniae assessed as zone of inhibition at 100 ug/well after 24 hrs by agar well diffusion method. The conditions noted are these: for zone of inhibition at 100 µg/disc: read-out: DIZ.
Assay [3] has as its system Bacillus subtilis. Put plainly: Antimicrobial activity against Bacillus subtilis assessed as zone of inhibition at 100 ug/well after 24 hrs by agar well diffusion method. The conditions noted are these: for zone of inhibition at 100 µg/disc: read-out: DIZ.
Assay [4] concerns Bacillus subtilis. Put plainly: Antimicrobial activity against Bacillus subtilis assessed as zone of inhibition at 75 ug/well after 24 hrs by agar well diffusion method. The conditions noted are these: for zone of inhibition at 75 µg/disc: read-out: DIZ.
Assay [5] deals with Aspergillus niger. Put plainly: Antifungal activity against Aspergillus niger assessed as zone of inhibition at 75 ug/well after 48 hrs by agar well diffusion method. The conditions noted are these: for zone of inhibition at 75 µg/disc: read-out: DIZ.
The subject of assay [6] is Staphylococcus aureus. Put plainly: Antimicrobial activity against Staphylococcus aureus assessed as zone of inhibition at 50 ug/well after 24 hrs by agar well diffusion method. Particulars: for zone of inhibition at 50 µg/disc: read-out: DIZ.
The subject of assay [7] is Klebsiella pneumoniae. Put plainly: Antimicrobial activity against Klebsiella pneumoniae assessed as zone of inhibition at 50 ug/well after 24 hrs by agar well diffusion method. The conditions noted are these: for zone of inhibition at 50 µg/disc: read-out: DIZ.
Assay [8] relates to Bacillus subtilis. Put plainly: Antimicrobial activity against Bacillus subtilis assessed as zone of inhibition at 50 ug/well after 24 hrs by agar well diffusion method. Particulars: for zone of inhibition at 50 µg/disc: read-out: DIZ.
Assay [9] concerns Aspergillus niger. Put plainly: Antifungal activity against Aspergillus niger assessed as zone of inhibition at 100 ug/well after 48 hrs by agar well diffusion method. The conditions noted are these: for zone of inhibition at 100 µg/disc: read-out: DIZ.
The test system of assay [10] is Pseudomonas aeruginosa. Put plainly: Antimicrobial activity against Pseudomonas aeruginosa assessed as zone of inhibition at 75 ug/well after 24 hrs by agar well diffusion method. The conditions noted are these: for zone of inhibition at 75 µg/disc: read-out: DIZ.
Assay [11] relates to Penicillium chrysogenum. Put plainly: Antifungal activity against Penicillium chrysogenum assessed as zone of inhibition at 100 ug/well after 48 hrs by agar well diffusion method. Particulars: for zone of inhibition at 100 µg/disc: read-out: DIZ.
Assay [12] has as its system Penicillium chrysogenum. Put plainly: Antifungal activity against Penicillium chrysogenum assessed as zone of inhibition at 50 ug/well after 48 hrs by agar well diffusion method. The conditions noted are these: for zone of inhibition at 50 µg/disc: read-out: DIZ.
Assay [13] concerns Staphylococcus aureus. Put plainly: Antimicrobial activity against Staphylococcus aureus assessed as zone of inhibition at 100 ug/well after 24 hrs by agar well diffusion method. The conditions noted are these: for zone of inhibition at 100 µg/disc: read-out: DIZ.
Assay [14] concerns Staphylococcus aureus. Put plainly: Antimicrobial activity against Staphylococcus aureus assessed as zone of inhibition at 75 ug/well after 24 hrs by agar well diffusion method. The conditions noted are these: for zone of inhibition at 75 µg/disc: read-out: DIZ.
Assay [15] has as its system Penicillium chrysogenum. Put plainly: Antifungal activity against Penicillium chrysogenum assessed as zone of inhibition at 75 ug/well after 48 hrs by agar well diffusion method. Particulars: for zone of inhibition at 75 µg/disc: read-out: DIZ.
Assay [16] has as its system Pseudomonas aeruginosa. Put plainly: Antimicrobial activity against Pseudomonas aeruginosa assessed as zone of inhibition at 50 ug/well after 24 hrs by agar well diffusion method. The conditions noted are these: for zone of inhibition at 50 µg/disc: read-out: DIZ.
Assay [17] deals with Klebsiella pneumoniae. Put plainly: Antimicrobial activity against Klebsiella pneumoniae assessed as zone of inhibition at 75 ug/well after 24 hrs by agar well diffusion method. Particulars: for zone of inhibition at 75 µg/disc: read-out: DIZ.
Assay [18] deals with Pseudomonas aeruginosa. Put plainly: Antimicrobial activity against Pseudomonas aeruginosa assessed as zone of inhibition at 100 ug/well after 24 hrs by agar well diffusion method. Particulars: for zone of inhibition at 100 µg/disc: read-out: DIZ.

As for `Cc1ccc(-c2onc(-c3ccccc3)c2S(=O)(=O)NC(=O)c2cccs2)cc1`, the zone of inhibition at 50 µg/disc with Aspergillus niger [1] came out at 13 mm; with Staphylococcus aureus [6] it was 12 mm; with Klebsiella pneumoniae [7] it was 16 mm; in the assay with Bacillus subtilis [8] it was 18 mm; in the assay with Penicillium chrysogenum [12], 10 mm. The zone of inhibition at 100 µg/disc with Klebsiella pneumoniae [2] was 21 mm; in the assay on Bacillus subtilis [3], 23 mm; in the assay on Aspergillus niger [9], 18 mm; in the assay with Penicillium chrysogenum [11], 16 mm; with Staphylococcus aureus [13] it was 16 mm; with Pseudomonas aeruginosa [18] it was 12 mm. Further, the zone of inhibition at 75 µg/disc in the assay on Bacillus subtilis [4] came to 20 mm; in the assay on Aspergillus niger [5], 15 mm; in the assay on Pseudomonas aeruginosa [10], 9 mm; in the assay on Staphylococcus aureus [14] it was 14 mm; with Penicillium chrysogenum [15] it was 12 mm; in the assay on Klebsiella pneumoniae [17] it was 20 mm. Also, in the assay on Pseudomonas aeruginosa [16], the “diameter of the inhibition zone (DIZ)” value was “inactive”.
`Cc1ccc(/C=C/S(=O)(=O)NC(=O)c2ccc(Cl)s2)cc1`: the zone of inhibition at 50 µg/disc was determined as 9 mm in the assay on Aspergillus niger [1], 10 mm in the assay with Staphylococcus aureus [6], 14 mm with Klebsiella pneumoniae [7] and 17 mm in the assay on Bacillus subtilis [8]. Moreover, the zone of inhibition at 100 µg/disc came to 17 mm with Klebsiella pneumoniae [2]; 22 mm in the assay on Bacillus subtilis [3]; 14 mm with Aspergillus niger [9]; 12 mm in the assay on Penicillium chrysogenum [11]; 14 mm in the assay on Staphylococcus aureus [13]; 12 mm in the assay on Pseudomonas aeruginosa [18]. The zone of inhibition at 75 µg/disc amounted to 19 mm with Bacillus subtilis [4]; 11 mm in the assay on Aspergillus niger [5]; 11 mm with Pseudomonas aeruginosa [10]; 13 mm in the assay with Staphylococcus aureus [14]; 10 mm in the assay with Penicillium chrysogenum [15]; 15 mm in the assay with Klebsiella pneumoniae [17]. For the same molecule, the “diameter of the inhibition zone (DIZ)” value in the assay with Penicillium chrysogenum [12] and in the assay on Pseudomonas aeruginosa [16] was “inactive” each time.
In the case of `O=C(NS(=O)(=O)C1C(c2ccccc2)=NOC1c1ccccc1)c1cccs1` (centres undefined), the “diameter of the inhibition zone (DIZ)” value with Aspergillus niger [1], in the assay with Aspergillus niger [5], with Staphylococcus aureus [6], in the assay on Klebsiella pneumoniae [7], in the assay with Aspergillus niger [9] and in the assay with Pseudomonas aeruginosa [10] was “inactive” in each case. The “diameter of the inhibition zone (DIZ)” value in the assay on Penicillium chrysogenum [11], in the assay with Penicillium chrysogenum [12], with Staphylococcus aureus [13], in the assay on Staphylococcus aureus [14], with Penicillium chrysogenum [15] and in the assay with Pseudomonas aeruginosa [16] was “inactive” in each case. The “diameter of the inhibition zone (DIZ)” value in the assay with Klebsiella pneumoniae [17] and in the assay on Pseudomonas aeruginosa [18] was “inactive” throughout. The zone of inhibition at 100 µg/disc in the assay on Klebsiella pneumoniae [2] turned out to be 9 mm; in the assay with Bacillus subtilis [3], 13 mm. Moreover, the zone of inhibition at 75 µg/disc in the assay on Bacillus subtilis [4] came to 10 mm. Besides, the zone of inhibition at 50 µg/disc in the assay on Bacillus subtilis [8] was 7 mm.
With `O=C(NS(=O)(=O)c1c(-c2ccccc2)nn(-c2ccccc2)c1-c1ccccc1)c1cccs1`, the zone of inhibition at 50 µg/disc in the assay on Aspergillus niger [1] was found to be 15 mm; with Staphylococcus aureus [6], 15 mm; with Klebsiella pneumoniae [7] it was 18 mm; in the assay on Bacillus subtilis [8] it was 22 mm; with Penicillium chrysogenum [12], 12 mm; in the assay on Pseudomonas aeruginosa [16], 9 mm. In addition, the zone of inhibition at 100 µg/disc came to 23 mm in the assay with Klebsiella pneumoniae [2]; 26 mm in the assay with Bacillus subtilis [3]; 20 mm in the assay on Aspergillus niger [9]; 16 mm in the assay on Penicillium chrysogenum [11]; 20 mm with Staphylococcus aureus [13]; 12 mm with Pseudomonas aeruginosa [18]. The zone of inhibition at 75 µg/disc with Bacillus subtilis [4] was determined as 23 mm; in the assay on Aspergillus niger [5], 16 mm; with Pseudomonas aeruginosa [10] it was 10 mm; in the assay on Staphylococcus aureus [14] it was 18 mm; in the assay with Penicillium chrysogenum [15], 14 mm; with Klebsiella pneumoniae [17] it was 20 mm.
Take `O=C(NS(=O)(=O)C1C(c2ccccc2)=NN(c2ccccc2)C1c1ccccc1)c1cccs1` (centres undefined): the “diameter of the inhibition zone (DIZ)” value in the assay on Aspergillus niger [1], in the assay on Klebsiella pneumoniae [2], in the assay on Bacillus subtilis [3], with Bacillus subtilis [4], in the assay with Aspergillus niger [5] and with Staphylococcus aureus [6] was “inactive” throughout. In addition, the “diameter of the inhibition zone (DIZ)” value in the assay with Klebsiella pneumoniae [7], in the assay with Bacillus subtilis [8], with Aspergillus niger [9], in the assay on Pseudomonas aeruginosa [10], with Penicillium chrysogenum [11] and with Penicillium chrysogenum [12] was “inactive” each time. Besides, the “diameter of the inhibition zone (DIZ)” value in the assay with Staphylococcus aureus [13], in the assay with Staphylococcus aureus [14], in the assay with Penicillium chrysogenum [15], in the assay with Pseudomonas aeruginosa [16], in the assay with Klebsiella pneumoniae [17] and in the assay with Pseudomonas aeruginosa [18] was “inactive” throughout.
As to `O=C(NS(=O)(=O)C1C(c2ccccc2)=NOC1c1ccc([N+](=O)[O-])cc1)c1cccs1` (centres undefined), the “diameter of the inhibition zone (DIZ)” value with Aspergillus niger [1], in the assay with Pseudomonas aeruginosa [10], in the assay on Penicillium chrysogenum [12], in the assay on Pseudomonas aeruginosa [16] and in the assay on Pseudomonas aeruginosa [18] was “inactive” throughout. The zone of inhibition at 100 µg/disc turned out to be 11 mm with Klebsiella pneumoniae [2]; 20 mm in the assay with Bacillus subtilis [3]; 13 mm with Aspergillus niger [9]; 10 mm in the assay with Penicillium chrysogenum [11]; 15 mm in the assay on Staphylococcus aureus [13]. Also, the zone of inhibition at 75 µg/disc is 16 mm with Bacillus subtilis [4]; 10 mm with Aspergillus niger [5]; 12 mm in the assay with Staphylococcus aureus [14]; 8 mm with Penicillium chrysogenum [15]; 10 mm in the assay with Klebsiella pneumoniae [17]. For the same molecule, the zone of inhibition at 50 µg/disc in the assay with Staphylococcus aureus [6] worked out at 11 mm; in the assay with Klebsiella pneumoniae [7], 9 mm; in the assay on Bacillus subtilis [8], 15 mm.
Consider `O=C(NS(=O)(=O)c1c(-c2ccccc2)noc1-c1ccccc1)c1cccs1`, for which the zone of inhibition at 50 µg/disc in the assay with Aspergillus niger [1] is 18 mm; in the assay with Staphylococcus aureus [6] it was 17 mm; in the assay with Klebsiella pneumoniae [7], 21 mm; in the assay on Bacillus subtilis [8], 24 mm; with Penicillium chrysogenum [12], 14 mm; in the assay with Pseudomonas aeruginosa [16], 11 mm. Also, the zone of inhibition at 100 µg/disc with Klebsiella pneumoniae [2] is 26 mm; with Bacillus subtilis [3], 29 mm; in the assay with Aspergillus niger [9], 23 mm; in the assay with Penicillium chrysogenum [11], 19 mm; in the assay with Staphylococcus aureus [13], 23 mm; with Pseudomonas aeruginosa [18] it was 15 mm. Besides, the zone of inhibition at 75 µg/disc was 26 mm in the assay on Bacillus subtilis [4]; 20 mm in the assay on Aspergillus niger [5]; 13 mm in the assay with Pseudomonas aeruginosa [10]; 21 mm in the assay on Staphylococcus aureus [14]; 16 mm in the assay on Penicillium chrysogenum [15]; 24 mm with Klebsiella pneumoniae [17].
`Cc1ccc(-c2onc(-c3ccccc3)c2S(=O)(=O)NC(=O)c2ccc(Cl)s2)cc1`: the zone of inhibition at 50 µg/disc is 18 mm with Aspergillus niger [1]; 13 mm with Staphylococcus aureus [6]; 17 mm with Klebsiella pneumoniae [7]; 21 mm with Bacillus subtilis [8]; 14 mm in the assay on Penicillium chrysogenum [12]; 8 mm in the assay with Pseudomonas aeruginosa [16]. The zone of inhibition at 100 µg/disc in the assay on Klebsiella pneumoniae [2] is 24 mm; in the assay with Bacillus subtilis [3], 25 mm; in the assay with Aspergillus niger [9] it was 26 mm; with Penicillium chrysogenum [11], 18 mm; in the assay on Staphylococcus aureus [13], 19 mm; with Pseudomonas aeruginosa [18], 14 mm. The zone of inhibition at 75 µg/disc in the assay on Bacillus subtilis [4] was 23 mm; in the assay with Aspergillus niger [5], 21 mm; in the assay on Pseudomonas aeruginosa [10], 10 mm; with Staphylococcus aureus [14], 17 mm; in the assay on Penicillium chrysogenum [15], 16 mm; in the assay with Klebsiella pneumoniae [17], 22 mm.
